Experimental data reported in patent US9101642B2, “Ticagrelor co-crystal” (AstraZeneca AB, priority 2011, dated 2015).

Legend:
[1] = Micro-dissolution in blank Fassif (fasted intestinal fluid without micelle forming components); type: physicochemical; details: blank Fassif pH 6.5, 9 mg in 25 ml, mean of n = 2
Method: (§1) Micro-dissolution investigations were performed on 9 mg of a sample of Compound A:acetyl salicylic acid co-crystal (prepared as described in Example 4) or Compound A Form II in both 25 ml of (i) Fasted intestinal fluid (Fassif) without micelle forming components (termed blank Fassif) and (ii) of Simulated Gastric Fluid (SGF). The samples were magnetically stirred and aliquots were taken at appropriate time intervals, centrifuged and the supernatant analysed by HPLC and the concentration of Compound A measured as a function of time.
Fasted intestinal fluid without micelle forming components (blank Fassif) media was prepared from 0.348 g NaOH pellets, 3.954 g NaH2PO4.H2O and 6.186 g NaCl in 1 L milli-Q water. The pH was then adjusted to pH 6.5 with 1N NaOH or 1N HCl.

[2] = Micro-dissolution in Simulated Gastric Fluid (SGF); type: physicochemical; details: 9 mg in 25 ml, mean of n = 2
Method: as §1
Simulated Gastric Fluid (SGF) media was prepared by adding 131.5 ml 1M HCl to 4 g NaCl and the resulting solution made up to 2 Liters with milli-Q water (de-ionised water).

In the case of `CCCSc1nc(N[C@@H]2C[C@H]2c2ccc(F)c(F)c2)c2nnn([C@@H]3C[C@H](OCCO)[C@@H](O)[C@H]3O)c2n1` (relative stereo) [Compound A Form II, {1S-[1α,2α, 3β(1S*,2R*),5β]}-3-(7-{[2-(3,4-difluorophenyl)cyclopropyl]amino}-5-(propylthio)-3H-1,2,3-triazolo[4,5-d]pyrimidin-3-yl)-5-(2-hydroxyethoxy)cyclopentane-1,2-diol], the “Concentration of Compound A” value ([1]; time 0 mins) is reported as 0 ng/mL, the “Concentration of Compound A” value ([1]; time 10 mins) is reported as 2950 ng/mL and the “Concentration of Compound A” value ([1]; time 20 mins) is reported as 3240 ng/mL. The “Concentration of Compound A” value ([1]; time 30 mins) was 3310 ng/mL, the “Concentration of Compound A” value ([1]; time 60 mins) was 3510 ng/mL and the “Concentration of Compound A” value ([1]; time 240 mins) was 3370 ng/mL. For the same molecule, the “Concentration of Compound A” value ([2]; time 0 mins) was 0 ng/mL, the “Concentration of Compound A” value ([2]; time 10 mins) was 7820 ng/mL and the “Concentration of Compound A” value ([2]; time 20 mins) was 8100 ng/mL. For the same molecule, the “Concentration of Compound A” value ([2]; time 30 mins) was 8520 ng/mL, the “Concentration of Compound A” value ([2]; time 60 mins) was 8100 ng/mL and the “Concentration of Compound A” value ([2]; time 240 mins) was 8450 ng/mL.
